Experimental data taken from patent US8518945B2, “Pyrrolopyrazine kinase inhibitors” (Hoffmann-La Roche Inc., priority 2010, dated 2013).

What follows are compounds tested against T1, h-jak3(810-1124) (JAK3: Recombinant human kinase domain) (Homo sapiens, UniProt P52333) (assay: Determination of IC50 of Janus Kinase (JAK) inhibition: JAK3 radioactive end-point 33P-ATP kinase assay). Settings: no additive; ATP 1.5 uM, peptide 50 uM, 20 minutes, room temperature; read-out: Ic50 h-jak3(810-1124)-sf9-c: no additive.
T1 construct: jak3(810- 1124)-sf9-c; made in house; host or cells: Sf9
Format: biochemical

T1 sequence (P52333 810-1124): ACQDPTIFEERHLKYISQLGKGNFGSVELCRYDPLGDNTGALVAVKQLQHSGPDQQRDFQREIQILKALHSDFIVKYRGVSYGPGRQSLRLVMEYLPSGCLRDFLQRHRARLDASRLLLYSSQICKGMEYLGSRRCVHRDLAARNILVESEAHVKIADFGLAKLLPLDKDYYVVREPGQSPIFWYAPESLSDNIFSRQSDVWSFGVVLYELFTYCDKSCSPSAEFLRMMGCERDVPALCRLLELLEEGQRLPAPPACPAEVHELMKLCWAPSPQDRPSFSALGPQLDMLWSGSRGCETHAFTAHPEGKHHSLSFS

| Structure (SMILES) | IC50 [nM] |
| --- | --- |
| CC(C)(C)[C@@H](NC(=O)c1c[nH]c2ncc(OCCC(F)(F)F)nc12)C(=O)N1CCC(C#N)CC1 [Example I-91, 2-(3,3,3-Trifluoro-propoxy)-5H-pyrrolo[2,3-b]pyrazine-7-carboxylic acid [(R)-1-(4-cyano-piperidine-1-carbonyl)-2,2-dimethyl-propyl]-amide] | 17 |
| CC(C)(C)[C@@H](NC(=O)c1c[nH]c2ncc(OCC(F)(F)F)nc12)C(=O)N1CCC(C#N)CC1 [Example I-93, 2-(2,2,2-Trifluoro-ethoxy)-5H-pyrrolo[2,3-b]pyrazine-7-carboxylic acid [(R)-1-(4-cyano-piperidine-1-carbonyl)-2,2-dimethyl-propyl]-amide] | 16.4 |
| C[C@@H](NC(=O)c1c[nH]c2ncc(-c3cc4nccc(Cl)c4s3)nc12)C(=O)N1CC(C#N)C1 [Example I-100, 2-(7-Chloro-thieno[3,2-b]pyridin-2-yl)-5H-pyrrolo[2,3-b]pyrazine-7-carboxylic acid [(R)-2-(3-cyano-azetidin-1-yl)-1-methyl-2-oxo-ethyl]-amide] | 16 |
| CC(C)(C)[C@@H](NC(=O)c1c[nH]c2ncc(C3CC3)nc12)C(=O)N1CCc2ncccc2C1 [Example I-135, 2-Cyclopropyl-5H-pyrrolo[2,3-b]pyrazine-7-carboxylic acid [(R)-1-(7,8-dihydro-5H-[1,6]naphthyridine-6-carbonyl)-2,2-dimethyl-propyl]-amide] | 6.11 |
| O=C(N[C@@H](C(=O)N1CCCC1)C1CC1)c1c[nH]c2ncc(C3CC3)nc12 [Example I-5, 2-Cyclopropyl-5H-pyrrolo[2,3-b]pyrazine-7-carboxylic acid ((R)-1-cyclopropyl-2-oxo-2-pyrrolidin-1-yl-ethyl)-amide] | 1.72 |
| C[C@@H](NC(=O)c1c[nH]c2ncc(C3CC3)nc12)C(=O)N1CCC(C#N)C1 (stereo partly drawn) [Example I-14, 2-Cyclopropyl-5H-pyrrolo[2,3-b]pyrazine-7-carboxylic acid [(R)-2-(3-cyano-pyrrolidin-1-yl)-1-methyl-2-oxo-ethyl]-amide] | 8.02 |
| CC(C)(C)[C@@H](NC(=O)c1c[nH]c2ncc(-c3cnc(Cl)s3)nc12)C(=O)N1CCC(C#N)CC1 [Example I-156, 2-(2-Chloro-thiazol-5-yl)-5H-pyrrolo[2,3-b]pyrazine-7-carboxylic acid [(R)-1-(4-cyano-piperidine-1-carbonyl)-2,2-dimethyl-propyl]-amide] | 5.97 |
| C[C@@H](NC(=O)c1c[nH]c2ncc(-c3cc(C4=CCCC4)ccn3)nc12)C(=O)N1CC(C#N)C1 [Example I-113, 2-(4-Cyclopent-1-enyl-pyridin-2-yl)-5H-pyrrolo[2,3-b]pyrazine-7-carboxylic acid [(R)-2-(3-cyano-azetidin-1-yl)-1-methyl-2-oxo-ethyl]-amide] | 3.71 |
| C[C@@H](NC(=O)c1c[nH]c2ncc(-c3cc(-n4cccn4)ccn3)nc12)C(=O)N1CC(C#N)C1 [Example I-152, 2-(4-Pyrazol-1-yl-pyridin-2-yl)-5H-pyrrolo[2,3-b]pyrazine-7-carboxylic acid [(R)-2-(3-cyano-azetidin-1-yl)-1-methyl-2-oxo-ethyl]-amide] | 9.52 |
| Cn1cc(-c2cnc3[nH]cc(C(=O)N[C@@H](C(=O)N4CC(C#N)C4)C(C)(C)C)c3n2)cn1 [Example I-53, 2-(1-Methyl-1H-pyrazol-4-yl)-5H-pyrrolo[2,3-b]pyrazine-7-carboxylic acid [(R)-1-(3-cyano-azetidine-1-carbonyl)-2,2-dimethyl-propyl]-amide] | 279 |
| N#CC1CN(C(=O)[C@H](NC(=O)c2c[nH]c3ncc(C4CC4)nc23)C2CCOCC2)C1 [Example I-136, 2-Cyclopropyl-5H-pyrrolo[2,3-b]pyrazine-7-carboxylic acid [(R)-2-(3-cyano-azetidin-1-yl)-2-oxo-1-(tetrahydro-pyran-4-yl)-ethyl]-amide] | 7.11 |
| CC(C)(C)[C@@H](NC(=O)c1c[nH]c2ncc(-c3cccc(N4CCCC4)c3)nc12)C(=O)N1CCC(C#N)CC1 [Example I-51, 2-(3-Pyrrolidin-1-yl-phenyl)-5H-pyrrolo[2,3-b]pyrazine-7-carboxylic acid [(R)-1-(4-cyano-piperidine-1-carbonyl)-2,2-dimethyl-propyl]-amide] | 111 |
| CC(C)(C)[C@@H](NC(=O)c1c[nH]c2ncc(-c3ccccn3)nc12)C(=O)N1CCC(C#N)CC1 [Example I-115, 2-Pyridin-2-yl-5H-pyrrolo[2,3-b]pyrazine-7-carboxylic acid [(R)-1-(4-cyano-piperidine-1-carbonyl)-2,2-dimethyl-propyl]-amide] | 2.92 |
| Cn1cc(-c2cnc3[nH]cc(C(=O)N[C@@H](C(=O)N4CCC(C#N)CC4)C(C)(C)C)c3n2)cn1 [Example I-55, 2-(1-Methyl-1H-pyrazol-4-yl)-5H-pyrrolo[2,3-b]pyrazine-7-carboxylic acid [(R)-1-(4-cyano-piperidine-1-carbonyl)-2,2-dimethyl-propyl]-amide] | 1.52 |
| CC(C)(C)[C@@H](NC(=O)c1c[nH]c2ncc(-c3cn(C4CCCC4)cn3)nc12)C(=O)N1CCC(C#N)CC1 [Example I-120, 2-(1-Cyclopentyl-1H-imidazol-4-yl)-5H-pyrrolo[2,3-b]pyrazine-7-carboxylic acid [(R)-1-(4-cyano-piperidine-1-carbonyl)-2,2-dimethyl-propyl]-amide] | 3.7 |
| C[C@@H](NC(=O)c1c[nH]c2ncc(C3CC3)nc12)C(=O)N1CCC(O)C1 (stereo partly drawn) [Example I-11, 2-Cyclopropyl-5H-pyrrolo[2,3-b]pyrazine-7-carboxylic acid [(R)-2-(3-hydroxy-pyrrolidin-1-yl)-1-methyl-2-oxo-ethyl]-amide] | 91.5 |
| C[C@@H](NC(=O)c1c[nH]c2ncc(-c3cc4nccc(N5CCCC5)c4s3)nc12)C(=O)N1CC(C#N)C1 [Example I-101, 2-(7-Pyrrolidin-1-yl-thieno[3,2-b]pyridin-2-yl)-5H-pyrrolo[2,3-b]pyrazine-7-carboxylic acid [(R)-2-(3-cyano-azetidin-1-yl)-1-methyl-2-oxo-ethyl]-amide] | 37 |
| CC(C)(C)c1ccnc(-c2cnc3[nH]cc(C(=O)N[C@@H](C(=O)N4CCC(C#N)CC4)C4CC4)c3n2)c1 [Example I-145, 2-(4-tert-Butyl-pyridin-2-yl)-5H-pyrrolo[2,3-b]pyrazine-7-carboxylic acid [(R)-2-(4-cyano-piperidin-1-yl)-1-cyclopropyl-2-oxo-ethyl]-amide] | 15.2 |

These reach a lower IC50. Values come first.

| IC50 [nM] | Structure (SMILES) |
| --- | --- |
| ≤ 0.32 | Cn1cc(-c2cnc3[nH]cc(C(=O)N[C@@H](C(=O)N4CC[C@H](C#N)C4)C4CC4)c3n2)cn1 [Example I-81, 2-(1-Methyl-1H-pyrazol-4-yl)-5H-pyrrolo[2,3-b]pyrazine-7-carboxylic acid [(R)-2-((S)-3-cyano-pyrrolidin-1-yl)-1-cyclopropyl-2-oxo-ethyl]-amide] |
| ≤ 0.32 | CC(=O)N1CCN(C(=O)[C@H](NC(=O)c2c[nH]c3ncc(C4CC4)nc23)C(C)(C)C)CC1 [Example I-57, 2-Cyclopropyl-5H-pyrrolo[2,3-b]pyrazine-7-carboxylic acid [(R)-1-(4-acetyl-piperazine-1-carbonyl)-2,2-dimethyl-propyl]-amide] |
| 0.68 | CCn1cc(-c2cnc3[nH]cc(C(=O)N[C@@H](C(=O)N4CCC(C)(O)CC4)C(C)(C)C)c3n2)cn1 [Example I-140, 2-(1-Ethyl-1H-pyrazol-4-yl)-5H-pyrrolo[2,3-b]pyrazine-7-carboxylic acid [(R)-1-(4-hydroxy-4-methyl-piperidine-1-carbonyl)-2,2-dimethyl-propyl]-amide] |
| ≤ 0.32 | CC(=O)N1CCN(c2ccc(-c3cnc4[nH]cc(C(=O)N[C@@H](C(=O)N5CC(C#N)C5)C5CC5)c4n3)cc2)CC1 [Example I-161, 2-[4-(4-Acetyl-piperazin-1-yl)-phenyl]-5H-pyrrolo[2,3-b]pyrazine-7-carboxylic acid [(R)-2-(3-cyano-azetidin-1-yl)-1-cyclopropyl-2-oxo-ethyl]-amide] |
| ≤ 0.32 | CN(C)c1ccc(-c2cnc3[nH]cc(C(=O)N[C@@H](C(=O)N4CC(C#N)C4)C4CC4)c3n2)cc1 [Example I-164, 2-(4-Dimethylamino-phenyl)-5H-pyrrolo[2,3-b]pyrazine-7-carboxylic acid [(R)-2-(3-cyano-azetidin-1-yl)-1-cyclopropyl-2-oxo-ethyl]-amide] |
| 0.78 | COc1ccnc2cc(-c3cnc4[nH]cc(C(=O)N[C@@H](C(=O)N5CC(C#N)C5)C5CC5)c4n3)sc12 [Example I-99, 2-(7-Methoxy-thieno[3,2-b]pyridin-2-yl)-5H-pyrrolo[2,3-b]pyrazine-7-carboxylic acid [(R)-2-(3-cyano-azetidin-1-yl)-1-cyclopropyl-2-oxo-ethyl]-amide] |
| 1.18 | N#CC1CCN(C(=O)[C@H](NC(=O)c2c[nH]c3ncc(-c4cc(OCC5CC5)ccn4)nc23)C2CC2)CC1 [Example I-129, 2-(4-Cyclopropylmethoxy-pyridin-2-yl)-5H-pyrrolo[2,3-b]pyrazine-7-carboxylic acid [(R)-2-(4-cyano-piperidin-1-yl)-1-cyclopropyl-2-oxo-ethyl]-amide] |
| 0.58 | N#CC1CN(C(=O)[C@H](NC(=O)c2c[nH]c3ncc(C4CC4)nc23)C2CC2)C1 [Example I-68, 2-Cyclopropyl-5H-pyrrolo[2,3-b]pyrazine-7-carboxylic acid [(R)-2-(3-cyano-azetidin-1-yl)-1-cyclopropyl-2-oxo-ethyl]-amide] |
| 0.42 | Cn1cc(-c2cnc3[nH]cc(C(=O)N[C@@H](C(=O)N4CC(C)(C#N)C4)C(C)(C)C)c3n2)cn1 [Example I-143, 2-(1-Methyl-1H-pyrazol-4-yl)-5H-pyrrolo[2,3-b]pyrazine-7-carboxylic acid [(R)-1-(3-cyano-3-methyl-azetidine-1-carbonyl)-2,2-dimethyl-propyl]-amide] |
| 1.24 | CC(C)(C)[C@@H](NC(=O)c1c[nH]c2ncc(C3CC3)nc12)C(=O)N1CC[C@H](C#N)C1 [Example I-30, 2-Cyclopropyl-5H-pyrrolo[2,3-b]pyrazine-7-carboxylic acid [(R)-1-((S)-3-cyano-pyrrolidine-1-carbonyl)-2,2-dimethyl-propyl]-amide] |
